According to publication PMC7489893, “A small molecule inhibitor of HER3: a proof-of-concept study” (Biochemical Journal, 2020):
Read-outs that look alike come from different tables or passages of the source.

Experiments:
[1] = target: T1, HER3 (Homo sapiens, UniProt P21860); experiment: biochemical; parameters: gene ERBB3; HER3 kinase domain (residues G684-D1020); differential scanning fluorimetry with SYPRO Orange, shift in HER3 kinase domain Tm
T1 sequence (P21860 684-1020): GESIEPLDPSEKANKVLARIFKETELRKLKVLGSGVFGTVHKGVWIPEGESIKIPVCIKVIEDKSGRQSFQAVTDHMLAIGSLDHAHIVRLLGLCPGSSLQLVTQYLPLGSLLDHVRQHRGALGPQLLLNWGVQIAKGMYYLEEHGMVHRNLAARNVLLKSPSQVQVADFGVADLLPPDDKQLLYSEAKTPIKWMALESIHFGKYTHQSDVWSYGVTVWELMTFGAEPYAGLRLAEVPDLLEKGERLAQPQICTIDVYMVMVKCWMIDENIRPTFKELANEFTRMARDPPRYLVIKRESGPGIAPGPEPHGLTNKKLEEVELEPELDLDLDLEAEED
Description: Thermal shift assays were performed using a QuantStudio7 Flex Real-Time PCR instrument (Applied Biosystems, ThermoFischer Scientific) scanning from 15°C to 75°C in 0.5°C increments every 30 s after an initial incubation at 15°C for 1 min. Fluorescence was measured at the end of each 30 s period with an excitation wavelength of 470 nm and an emission wavelength of 620 nm. HER3 and HER2 kinase domain recombinant proteins were diluted in 50 mM Hepes pH 7.5, 150 mM NaCl, 5% glycerol and 1 mM DTT to a concentration of 1.5 μM and then incubated with the indicated concentration of compounds in a total reaction volume of 10 μl, with a final concentration of 2.5X SYPRO Orange (ThermoFisher Scientific) as fluorescence probe. […] Hit compounds stabilising HER3 were then evaluated for their relative binding affinity in a dose–response thermal shift assay at 1, 3, 10 and 30 μM (Supplementary Figure S2C). […] The proof-of-concept compound was confirmed as a HER3 binder inducing a shift in HER3 Tm of over 3°C with the dose–response indicating an estimated IC50 of 4 μM (Figure 1D and Supplementary Table S2). Near neighbours of those 109 hits were selected and 663 new compounds were screened in duplicate for their relative potency at 1, 3, 10 and 30 μM by thermal shift assay. From those, 446 compounds passed the selection criteria, i.e. induced shift in HER3 Tm > 3°C below 10 μM (data not shown). Figure 1. A differential scanning fluorimetry (DSF) assay compound screen identifies 428 HER3-preferential binders from a 107 008 compound library. (A) Overview of the screening strategy and hit rate for each step of the screening cascade. […] ApoHER3 (HER3 kinase domain with no ligand) was used as a control for all DSF analyses (mean of ApoHER3 Tm across the plates set at ΔTm = 0°C is indicated by the dash green line) and ΔTm values were calculated for each pool of compounds tested at 30 μM each (N = 1). Cut-off values of ΔTm>3°C and ΔTm < −5°C were used to designate hits (shown as dashed pink lines). The pool of compounds containing proof-of-concept compound AC3573 is circled. Gaps indicate the rare plate failures (three plates). Compounds from these plates were retested during the deconvolution screen. (C) Correlation of shift in HER3 Tm value induced by deconvoluted pool compounds tested at 30 μM between the two repeats of deconvolution screening. AC3573 and its three pool compounds are highlighted. (D) Dose-dependent analysis of thermal shifts induced by AC3573 compound tested at 1, 3, 10 and 30 μM in the HER3 potency screen. The change in HER3 Tm value (ΔTm), compared with ApoHER3 control, is reported as mean ± SD from N = 4 independent experiments. […]

[2] = target: T1, HER3; experiment: DSF dose-response thermal shift; HDX-MS binding site mapping; parameters: gene ERBB3
[3] = target: T1, HER3; experiment: biochemical; parameters: gene ERBB3; HER3 kinase domain (residues G684-D1020); differential scanning fluorimetry with SYPRO Orange, HER3 Tm shift, single-compound deconvolution screen; conditions: read-out: ΔTm (°C) HER3 deconvolution screen
Description: Thermal shift assays were performed using a QuantStudio7 Flex Real-Time PCR instrument (Applied Biosystems, ThermoFischer Scientific) scanning from 15°C to 75°C in 0.5°C increments every 30 s after an initial incubation at 15°C for 1 min. Fluorescence was measured at the end of each 30 s period with an excitation wavelength of 470 nm and an emission wavelength of 620 nm. HER3 and HER2 kinase domain recombinant proteins were diluted in 50 mM Hepes pH 7.5, 150 mM NaCl, 5% glycerol and 1 mM DTT to a concentration of 1.5 μM and then incubated with the indicated concentration of compounds in a total reaction volume of 10 μl, with a final concentration of 2.5X SYPRO Orange (ThermoFisher Scientific) as fluorescence probe. […] Having established a robust screening platform, a total of 107 008 small molecule compounds were screened as mixtures of four compounds per well (a total of 26 752 wells) at 30 μM each in a primary library screen. […] In the second step of screening, hit pools of compounds were arrayed as individual compounds and 3119 compounds (2835 hits plus 284 compounds from failed wells from the primary screen) were assessed at 30 μM, using the same thermal shift assay settings as for the primary screen (0.3% DMSO as neutral controls reflecting the single compound use, 200 μM ATP/10 mM MgCl2 as positive controls) applying again a cut-off value of ΔTm > 3°C (Figure 1C). […]

[4] = target: T2, HER2 kinase domain (Homo sapiens, UniProt P04626); experiment: biochemical; parameters: in vitro HER2 kinase inhibition assay at the Km for ATP (ThermoFisher); conditions: at Km for ATP; read-out: Activity against HER2, IC50
T2 construct: gene ERBB2; kinase domain, ThermoFisher in vitro kinase assay
Excerpt: Since the readout for HER3 function in cells required HER2 activity, it was critical to confirm HER2 inactivity of these compounds.

[5] = target: T3, HER2 (Homo sapiens, UniProt P04626, M706A/M712L/Q711L); experiment: biochemical; parameters: differential scanning fluorimetry with SYPRO Orange, shift in HER2 kinase domain Tm (counter screen); conditions: counter screen
T3 construct: gene ERBB2; HER2 kinase domain (S703-G1029)
Description: Thermal shift assays were performed using a QuantStudio7 Flex Real-Time PCR instrument (Applied Biosystems, ThermoFischer Scientific) scanning from 15°C to 75°C in 0.5°C increments every 30 s after an initial incubation at 15°C for 1 min. Fluorescence was measured at the end of each 30 s period with an excitation wavelength of 470 nm and an emission wavelength of 620 nm. HER3 and HER2 kinase domain recombinant proteins were diluted in 50 mM Hepes pH 7.5, 150 mM NaCl, 5% glycerol and 1 mM DTT to a concentration of 1.5 μM and then incubated with the indicated concentration of compounds in a total reaction volume of 10 μl, with a final concentration of 2.5X SYPRO Orange (ThermoFisher Scientific) as fluorescence probe. […] We sought to identify compounds binding specifically to HER3. Since HER2 and HER3 are highly homologous EGFR family members, we took forward the 555 compounds identified as stabilising HER3, to be counter screened for HER2 binding. […] Compounds binding to HER2, i.e. inducing a shift in HER2 Tm over 2°C (3×SD) compared with the DMSO neutral control were disregarded (Supplementary Figure S2D). […] A differential scanning fluorimetry (DSF) assay compound screen identifies 428 HER3-preferential binders from a 107 008 compound library. (A) Overview of the screening strategy and hit rate for each step of the screening cascade. […] ApoHER3 (HER3 kinase domain with no ligand) was used as a control for all DSF analyses (mean of ApoHER3 Tm across the plates set at ΔTm = 0°C is indicated by the dash green line) and ΔTm values were calculated for each pool of compounds tested at 30 μM each (N = 1). Cut-off values of ΔTm>3°C and ΔTm < −5°C were used to designate hits (shown as dashed pink lines). The pool of compounds containing proof-of-concept compound AC3573 is circled. Gaps indicate the rare plate failures (three plates). Compounds from these plates were retested during the deconvolution screen. (C) Correlation of shift in HER3 Tm value induced by deconvoluted pool compounds tested at 30 μM between the two repeats of deconvolution screening. AC3573 and its three pool compounds are highlighted. (D) Dose-dependent analysis of thermal shifts induced by AC3573 compound tested at 1, 3, 10 and 30 μM in the HER3 potency screen. The change in HER3 Tm value (ΔTm), compared with ApoHER3 control, is reported as mean ± SD from N = 4 independent experiments. Representative thermal denaturation profiles of recombinant HER3 kinase domain, in the presence of 0.3% DMSO (Apo control), ATP/MgCl2 (ATP control) or AC3573 tested at 1, 3, 10 and 30 μM. (E) Dose-dependent analysis of thermal shifts induced by AC3573 compound tested at 1, 3, 10 and 30 μM in the HER2 counter screen. […]

[6] = read-out: ΔTm (°C) HER3 potency screen

ΔTm at 3 µM ([1]; 3 uM, potency screen): 1.27 ± 0.51 °C | ΔTm at 30 µM ([1]; 30 uM, potency screen): 3.2 ± 0.24 °C | ΔTm at 1 µM [1, 6]: -1.34 ± 0.48 °C | ΔTm at 10 µM [1, 6]: 3.28 ± 0.62 °C | IC50 [2]: ~4 µM | ΔTm at 30 µM [3]: 3.65 ± 0.25 °C | IC50 [4]: > 10 µM | ΔTm at 1 µM ([5]; 1 uM): -0.75 ± 0.18 °C | ΔTm at 3 µM ([5]; 3 uM): 0.48 ± 0.52 °C | ΔTm at 10 µM ([5]; 10 uM): 1.56 ± 0.26 °C | ΔTm at 30 µM ([5]; 30 uM): 1.95 ± 0.25 °C
Compound: NS(=O)(=O)c1cccc(Nc2cc(-c3c[nH]c4ccccc34)ncn2)c1 [AC3573]
